Assay results taken from patent US20260166159A1, “KRAS G12D DEGRADATION AGENT, AND PREPARATION METHOD AND USE THEREFOR” (LEADINGTAC PHARMACEUTICAL (SHAOXING) CO., LTD., priority 2022, published 2026).

Target: T1, KRAS-G12D (Homo sapiens, UniProt P01116, G12D)
T1 construct: endogenous in cells; host or cells: A-427 (ATCC), AGS, AsPc-1, Panc 04.03
Experiment: KRAS-G12D degradation assay (Western Blot), A-427 cells
Type: cell-based
Conditions: A427 cells, 24 h, class symbols; for Dmax: A-427
How it was run: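 Each KRAS G12D mutant line (A-427, AGS, AsPc-1, Panc 04.03) was seeded at 5×10^5 cells/well and treated 24 h at 37 °C with 0.03–3000 nM compound (final DMSO 0.25%). KRAS in lysates was measured by Western blot, normalized to β-actin and compared with controls, giving DC50 and Dmax from curve fits.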

T1 sequence (P01116 1-188 isoform P01116-2 G12D): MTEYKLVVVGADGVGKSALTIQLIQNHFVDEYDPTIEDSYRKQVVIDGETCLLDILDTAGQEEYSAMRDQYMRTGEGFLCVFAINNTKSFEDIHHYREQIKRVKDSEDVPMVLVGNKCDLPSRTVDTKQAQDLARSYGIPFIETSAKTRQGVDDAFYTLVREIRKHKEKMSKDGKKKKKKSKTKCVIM

| SMILES | DC50 [nM] | Dmax [%] |
| --- | --- | --- |
| C#Cc1c(F)ccc2cc(O)cc(-c3ncc4c(N5CC6CCC(C5)N6)nc(OCC5(CN6CCN(CCC7CCC8(CC7)CCN(C(=O)c7ccc(Cl)c(N9CCC(=O)NC9=O)c7)CC8)CC6)CC5)nc4c3F)c12 [Example 18, 1-(5-(9-(2-(4-((1-(((4-(3,8-diazabicyclo[3.2.1]octan-3-yl)-7-(8-ethynyl-7-fluoro-3-hydroxynaphthalen-1-yl)-8-fluoropyrido[4,3-d]pyrimidin-2-yl)oxy)methyl)cyclopropyl)methyl)piperazin-1-yl)ethyl)-3-azaspiro[5.5]undecane-3-carbonyl)-2-chlorophenyl)dihydropyrimidine-2,4(1H,3H)-dione] | ≤ 50 | 80 to 100 |
| C#Cc1c(F)ccc2cc(O)cc(-c3ncc4c(N5CC6CCC(C5)N6)nc(OCC(C)(C)CN5CCN(CC6CCC7(CC6)CCN(C(=O)c6ccc(OC)c(N8CCC(=O)NC8=O)c6)CC7)CC5)nc4c3F)c12 [Example 26, 1-(5-(9-((4-(3-((4-(3,8-diazabicyclo[3.2.1]octan-3-yl)-7-(8-ethynyl-7-fluoro-3-hydroxynaphthalen-1-yl)-8-fluoropyrido[4,3-d]pyrimidin-2-yl)oxy)-2,2-dimethylpropyl)piperazin-1-yl)methyl)-3-azaspiro[5.5]undecane-3-carbonyl)-2-methoxyphenyl)dihydropyrimidine-2,4(1H,3H)-dione] | 1000 to 10000 | 30 to 50 |
| C#Cc1c(F)ccc2cc(O)cc(-c3ncc4c(N5CC6CCC(C5)N6)nc(OCC5(CN6CCN(CC7CCC8(CC7)CCN(C(=O)c7ccc(Cl)c(N9CCC(=O)N(C)C9=O)c7)CC8)CC6)CC5)nc4c3F)c12 [Example 17, 1-(5-(9-((4-((1-(((4-(3,8-diazabicyclo[3.2.1]octan-3-yl)-7-(8-ethynyl-7-fluoro-3-hydroxynaphthalen-1-yl)-8-fluoropyrido[4,3-d]pyrimidin-2-yl)oxy)methyl)cyclopropyl)methyl)piperazin-1-yl)methyl)-3-azaspiro[5.5]undecane-3-carbonyl)-2-chlorophenyl)-3-methyldihydropyrimidine-2,4(1H,3H)-dione] | 1000 to 10000 | < 30 |
| C#Cc1c(F)ccc2cc(O)cc(-c3ncc4c(N5CC6CCC(C5)N6)nc(OCC5(CN6CCN(CC7CCC8(CC7)CCN(C(=O)c7ccc(Br)c(N9CCC(=O)NC9=O)c7)CC8)CC6)CC5)nc4c3F)c12 [Example 29, 1-(5-(9-((4-((1-(((4-(3,8-diazabicyclo[3.2.1]octan-3-yl)-7-(8-ethynyl-7-fluoro-3-hydroxynaphthalen-1-yl)-8-fluoropyrido[4,3-d]pyrimidin-2-yl)oxy)methyl)cyclopropyl)methyl)piperazin-1-yl)methyl)-3-azaspiro[5.5]undecane-3-carbonyl)-2-bromophenyl)dihydropyrimidine-2,4(1H,3H)-dione] | ≤ 50 | 80 to 100 |
| C#Cc1c(F)ccc2cc(O)cc(-c3ncc4c(N5CC6CCC(C5)N6)nc(OCC5(CN6CCN(CCCC7CCN(C(=O)c8ccc(Cl)c(N9CCC(=O)NC9=O)c8)CC7)CC6)CC5)nc4c3F)c12 [Example 4, 1-(5-(4-(3-(4-((1-(((4-(3,8-diazabicyclo[3.2.1]octan-3-yl)-7-(8-ethynyl-7-fluoro-3-hydroxynaphthalen-1-yl)-8-fluoropyrido[4,3-d]pyrimidin-2-yl)oxy)methyl)cyclopropyl)methyl)piperazin-1-yl)propyl)piperidine-1-carbonyl)-2-chlorophenyl)dihydropyrimidine-2,4(1H,3H)-dione] | ≤ 50 | 80 to 100 |
| C#Cc1c(F)ccc2cc(O)cc(-c3ncc4c(N5CC6CCC(C5)N6)nc(OCC(C)(C)CN5CCN(CCCC6CCN(C(=O)c7ccc(Cl)c(N8CCC(=O)NC8=O)c7)CC6)CC5)nc4c3F)c12 [Example 23, 1-(5-(4-(3-(4-(3-((4-(3,8-diazabicyclo[3.2.1]octan-3-yl)-7-(8-ethynyl-7-fluoro-3-hydroxynaphthalen-1-yl)-8-fluoropyrido[4,3-d]pyrimidin-2-yl)oxy)-2,2-dimethylpropyl)piperazin-1-yl)propyl)piperidine-1-carbonyl)-2-chlorophenyl)dihydropyrimidine-2,4(1H,3H)-dione] | 1000 to 10000 | 30 to 50 |
| CCc1c(F)ccc2cc(O)cc(-c3ncc4c(N5CC6CCC(C5)N6)nc(OCC5(CN6CCN(CC7CCC8(CC7)CCN(C(=O)c7ccc(Cl)c(N9CCC(=O)NC9=O)c7)CC8)CC6)CC5)nc4c3F)c12 [Example 30, 1-(5-(9-((4-((1-(((4-(3,8-diazabicyclo[3.2.1]octan-3-yl)-7-(8-ethyl-7-fluoro-3-hydroxynaphthalen-1-yl)-8-fluoropyrido[4,3-d]pyrimidin-2-yl)oxy)methyl)cyclopropyl)methyl)piperazin-1-yl)methyl)-3-azaspiro[5.5]undecane-3-carbonyl)-2-chlorophenyl)dihydropyrimidine-2,4(1H,3H)-dione] | ≤ 50 | 50 to 80 |
| C#Cc1c(F)ccc2cc(O)cc(-c3ncc4c(N5CC6CCC(C5)N6)nc(OCC5(CN6CCC(COCC7CCN(C(=O)c8ccc(Cl)c(N9CCC(=O)NC9=O)c8)CC7)CC6)CC5)nc4c3F)c12 [Example 13, 1-(5-(4-(((1-((1-(((4-(3,8-diazabicyclo[3.2.1]octan-3-yl)-7-(8-ethynyl-7-fluoro-3-hydroxynaphthalen-1-yl)-8-fluoropyrido[4,3-d]pyrimidin-2-yl)oxy)methyl)cyclopropyl)methyl)piperidin-4-yl)methoxy)methyl)piperidine-1-carbonyl)-2-chlorophenyl)dihydropyrimidine-2,4(1H,3H)-dione] | 50 to 100 | 50 to 80 |
| C#Cc1c(F)ccc2cc(O)cc(-c3ncc4c(N5CC6CCC(C5)N6)nc(OCC5(CN6CCN(CCCCC7CCN(C(=O)c8ccc(Cl)c(N9CCC(=O)NC9=O)c8)CC7)CC6)CC5)nc4c3F)c12 [Example 5, 1-(5-(4-(4-(4-((1-(((4-(3,8-diazabicyclo[3.2.1]octan-3-yl)-7-(8-ethynyl-7-fluoro-3-hydroxynaphthalen-1-yl)-8-fluoropyrido[4,3-d]pyrimidin-2-yl)oxy)methyl)cyclopropyl)methyl)piperazin-1-yl)butyl)piperidine-1-carbonyl)-2-chlorophenyl)dihydropyrimidine-2,4(1H,3H)-dione] | ≤ 50 | 80 to 100 |
| C#Cc1c(F)ccc2cc(O)cc(-c3ncc4c(N5CC6CCC(C5)N6)nc(OCC5(CN6CCN(CCCC7CCC8(CC7)CCN(C(=O)c7ccc(Cl)c(N9CCC(=O)NC9=O)c7)CC8)CC6)CC5)nc4c3F)c12 [Example 7, 1-(5-(9-(3-(4-((1-(((4-(3,8-diazabicyclo[3.2.1]octan-3-yl)-7-(8-ethynyl-7-fluoro-3-hydroxynaphthalen-1-yl)-8-fluoropyrido[4,3-d]pyrimidin-2-yl)oxy)methyl)cyclopropyl)methyl)piperazin-1-yl)propyl)-3-azaspiro[5.5]undecane-3-carbonyl)-2-chlorophenyl)dihydropyrimidine-2,4(1H,3H)-dione] | ≤ 50 | 80 to 100 |
| C#Cc1c(F)ccc2cc(O)cc(-c3ncc4c(N5CC6CCC(C5)N6)nc(OCC5(CN6CCN(CC7CCC8(CC7)CCN(C(=O)c7ccc(OC)c(N9CCC(=O)NC9=O)c7)CC8)CC6)CC5)nc4c3F)c12 [Example 14, 1-(5-(9-((4-((1-(((4-(3,8-diazabicyclo[3.2.1]octan-3-yl)-7-(8-ethynyl-7-fluoro-3-hydroxynaphthalen-1-yl)-8-fluoropyrido[4,3-d]pyrimidin-2-yl)oxy)methyl)cyclopropyl)methyl)piperazin-1-yl)methyl)-3-azaspiro[5.5]undecane-3-carbonyl)-2-methoxyphenyl)dihydropyrimidine-2,4(1H,3H)-dione] | ≤ 50 | 80 to 100 |
| C#Cc1c(F)ccc2cc(O)cc(-c3ncc4c(N5CC6CCC(C5)N6)nc(OCC5(CN6CCN(CCCC7CCN(C(=O)c8ccc(Cl)c(N9CCC(=O)NC9=O)c8)CC7)CC6)CCC5)nc4c3F)c12 [Example 24, 1-(5-(4-(3-(4-((1-(((4-(3,8-diazabicyclo[3.2.1]octan-3-yl)-7-(8-ethynyl-7-fluoro-3-hydroxynaphthalen-1-yl)-8-fluoropyrido[4,3-d]pyrimidin-2-yl)oxy)methyl)cyclobutyl)methyl)piperazin-1-yl)propyl)piperidine-1-carbonyl)-2-chlorophenyl)dihydropyrimidine-2,4(1H,3H)-dione] | ≤ 50 | 80 to 100 |
| C#Cc1c(F)ccc2cc(O)cc(-c3ncc4c(N5CC6CCC(C5)N6)nc(OCC5(CN6CCC(CCOCC7CCN(C(=O)c8ccc(Cl)c(N9CCC(=O)NC9=O)c8)CC7)CC6)CC5)nc4c3F)c12 [Example 10] | ≤ 50 | 80 to 100 |
| C#Cc1c(F)ccc2cc(O)cc(-c3ncc4c(N5CC6CCC(C5)N6)nc(OCC5(CN6CCC(COCCC7CCN(C(=O)c8ccc(Cl)c(N9CCC(=O)NC9=O)c8)CC7)CC6)CC5)nc4c3F)c12 [Example 21, 1-(5-(4-(2-((1-((1-(((4-(3,8-diazabicyclo[3.2.1]octan-3-yl)-7-(8-ethynyl-7-fluoro-3-hydroxynaphthalen-1-yl)-8-fluoropyrido[4,3-d]pyrimidin-2-yl)oxy)methyl)cyclopropyl)methyl)piperidin-4-yl)methoxy)ethyl)piperidine-1-carbonyl)-2-chlorophenyl)dihydropyrimidine-2,4(1H,3H)-dione] | ≤ 50 | 80 to 100 |
| C#Cc1c(F)ccc2cc(O)cc(-c3ncc4c(N5CC6CCC(C5)N6)nc(OC[C@@H]5CCCN5CCC5CCC6(CC5)CCN(C(=O)c5ccc(Cl)c(N7CCC(=O)NC7=O)c5)CC6)nc4c3F)c12 [Example 32, 1-(5-(9-(2-((S)-2-(((4-(3,8-diazabicyclo[3.2.1]octan-3-yl)-7-(8-ethynyl-7-fluoro-3-hydroxynaphthalen-1-yl)-8-fluoropyrido[4,3-d]pyrimidin-2-yl)oxy)methyl)pyrrolidin-1-yl)ethyl)-3-azaspiro[5.5]undecane-3-carbonyl)-2-chlorophenyl)dihydropyrimidine-2,4(1H,3H)-dione] | 1000 to 10000 | < 30 |
